Measurements taken from patent US5686458A, “Quinazoline deriviates for treating peptic ulcer” (Yuhan Corporation, priority 1992, dated 1997).

Legend:
[1] = target: T1, H^+ /K^+ ATPase (proton pump), gastric vesicles (Sus scrofa, UniProt P19156); test: Determination of H+/K+ ATPase activity, Lineweaver-Burk kinetics versus K+ (Experiment 4-2); assay type: biochemical, pig; conditions: for Competitive inhibition with K+ at the K+ binding site of proton pump: Lineweaver-Burk plot, KCl 0.1 to 30 mM
T1 construct: Gastric vesicles were prepared from pig stomach; from tissue; host or cells: pig stomach, lyophilized gastric vesicles
Method: Gastric vesicles were prepared from pig stomach by the method described in Saccomani G., et al., J. Biol. Chem. 250, 4802-4809 (1975). The vesicles were lyophilized and kept at -70° C. The protein content was determined by the method of Lowry et al., using bovine serum albumin as standard[see Lowry, O. H., Rosebrough, N. J. and Randall, R. J., J. Biol. Chem. 193, 265-275 (1951)].
Test tubes were divided into 4 groups, each having 3 test tubes. As a control group, group 1 was added with the 10 μl of DMSO. Groups 2, 3 and 4 were administered with the compound prepared in example 34 whose final concentration are 0.17 μM, 0.33 μM and 0.67 μM, respectively. Each group was further divided into 3 small groups, in which enzymes were activated by ATP; ATP and Mg^++; and ATP, Mg^++ and K^+, respectively.
To all of the test tubes, were added 100 μl of lyophilized vesicles prepared at the concentration of 25 μg protein/ml and then 90 μl of 5 mM Pipes/Tris buffer pH 7.0. The compound prepared in Example 34 was added to each Group until the final concentration thereof became 0.17, 0.33 or 0.67 μM, respectively, They were preincubated for 15 minutes.
50 μl of ATP(3 mM) was added to each of the four Groups and the 50 μl of MgCl2 (2 mM) was added only to the 2nd and 3rd small groups of all Groups. Further, to the 3rd small groups of all Groups, were added 50 μl of KCl solution of various concentrations(from 0.1 mM to 30 mM) and then 150μl of Pipes/Tris buffer of pH 7.0. To the rest small groups, Pipes/Tris buffer of pH 7.0 was added until the volume became the same as that of the 3rd small group.
The test tube's were incubated at 37° C. for 30 minutes and then the reaction was terminated by adding 25% cold trichloroacetic acid solution. They were centrifuged by means of a microcentrifuge and the supernatant was taken up for the measurement of the released inorganic phosphate content by an automatic analyzer(CIBA CORNING, Express 550).
In accordance with the same procedures as above, except that 15 and 30 μm of omeprazole and 0.75, 1.5 and 3.0 μm of SK&F96067 were used as comparative substances, released inorganic phosphate content was measured.
The released inorganic phosphate contents of the three small groups were considered as the activity of H^+ /K^+ ATPase at each of the concentrations employed. The specific activity of H^+ /K^+ ATPase was calculated from the following equation:
Specific activity=(A-C)-(B-C) . . . (V)
A is the activity of enzyme activated by ATP, Mg^++ and , K^+ ;
B is the activity of enzyme activated by ATP and M^++ and
C is the activity of enzyme activated by ATP.
The specific activity, thus calculated, of Groups 1, 2, 3 and 4 which employed DMSO and the compound of Example 34 at 3 different concentrations were then plotted with respect to the concentration of KCl in FIG. 1 according to the method of Lineweaver-Burk, wherein .box-solid., .quadrature. and .largecircle. represent the respective concentrations of the compound of Example 34 of 0.67 μM, 0.33 μM and 0.17 μM; and .oval-solid. represents concentration of the DMSO compound. FIG. 2 depicts the Lineweaver-Burk plot of the specific activities obtained from SK&F96067, wherein .box-solid., .quadrature. and .largecircle. represent its respective concentrations of 3.0 μM, 1.5 μM, 0.75 μM; and .oval-solid. represents concentration of the DMSO compound. FIG. 3 illustrates the Lineweaver-Burk plot of the specific activities obtained from omeprazole, wherein .oval-solid. and .quadrature. represent its concentrations of 15 μM and 30 μM; and .largecircle. represents the concentration of DMSO.

gastric secretion = test: Inhibition of Gastric Secretion, pylorus-ligated rats (Experiment 2); assay type: in vivo, Sprague-Dawley rats; conditions: relative to omeprazole (equation III), 20 mg/kg intraduodenally, pylorus-ligated rats, 5 hours
How it was run: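 Sprague-Dawley rats (170±10 g, n=5/group), fasted 24 h, pylorus-ligated under ether; compounds given intraduodenally at 20 mg/kg in 30% aqueous PEG 400. Gastric juice collected after 5 h, volume and acidity measured; relative volume, acid concentration and acid output computed versus vehicle and omeprazole groups.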

proton pump = conditions: background statement; cited from earlier work

T1 sequence (P19156 2-1034 limits assumed): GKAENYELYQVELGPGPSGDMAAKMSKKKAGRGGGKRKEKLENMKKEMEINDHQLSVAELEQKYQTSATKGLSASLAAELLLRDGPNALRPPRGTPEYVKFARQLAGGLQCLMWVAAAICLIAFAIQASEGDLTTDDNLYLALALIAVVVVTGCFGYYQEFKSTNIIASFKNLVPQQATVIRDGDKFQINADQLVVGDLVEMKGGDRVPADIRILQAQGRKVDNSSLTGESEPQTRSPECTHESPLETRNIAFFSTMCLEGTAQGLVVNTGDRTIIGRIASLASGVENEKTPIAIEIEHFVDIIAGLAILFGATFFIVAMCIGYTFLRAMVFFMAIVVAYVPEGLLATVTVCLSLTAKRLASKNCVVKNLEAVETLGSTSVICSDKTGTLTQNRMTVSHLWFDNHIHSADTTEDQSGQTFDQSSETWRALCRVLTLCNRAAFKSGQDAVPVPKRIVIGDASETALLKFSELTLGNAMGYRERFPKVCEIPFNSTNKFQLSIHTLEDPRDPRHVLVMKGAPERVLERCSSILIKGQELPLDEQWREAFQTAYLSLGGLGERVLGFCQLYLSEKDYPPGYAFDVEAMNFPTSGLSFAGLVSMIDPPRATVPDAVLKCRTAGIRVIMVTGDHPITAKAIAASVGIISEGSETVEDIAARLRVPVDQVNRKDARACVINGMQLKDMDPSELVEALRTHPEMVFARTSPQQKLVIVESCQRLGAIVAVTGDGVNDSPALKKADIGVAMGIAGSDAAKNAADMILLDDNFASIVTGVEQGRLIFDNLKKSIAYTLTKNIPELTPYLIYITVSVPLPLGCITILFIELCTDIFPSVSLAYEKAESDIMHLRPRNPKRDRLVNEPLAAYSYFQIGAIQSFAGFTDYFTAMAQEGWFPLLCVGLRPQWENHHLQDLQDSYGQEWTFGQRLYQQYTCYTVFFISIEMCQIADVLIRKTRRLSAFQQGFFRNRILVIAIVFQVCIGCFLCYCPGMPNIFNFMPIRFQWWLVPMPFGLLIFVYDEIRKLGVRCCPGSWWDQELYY
T1 sequence (P18434 whole entry partner): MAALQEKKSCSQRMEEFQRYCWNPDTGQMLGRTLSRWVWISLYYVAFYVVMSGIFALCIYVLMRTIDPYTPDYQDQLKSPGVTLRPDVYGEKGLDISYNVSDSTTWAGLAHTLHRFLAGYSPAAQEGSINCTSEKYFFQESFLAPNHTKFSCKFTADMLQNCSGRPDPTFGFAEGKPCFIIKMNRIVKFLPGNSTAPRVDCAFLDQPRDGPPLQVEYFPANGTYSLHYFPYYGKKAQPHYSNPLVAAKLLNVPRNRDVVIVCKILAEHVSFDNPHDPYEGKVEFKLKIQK

SMILES	Competitive inhibition with K+ at the K+ binding site of proton pump [1]	Ki ([1]; Lineweaver-Burk, versus K+, pH 7.0) [nM]	Relative Acid Output (gastric secretion)	Reversibility of the proton pump inhibition (proton pump)	Inhibition overcome by increasing the concentration of KCl ([1]; 15 and 30 μM)	Reaction speed in comparison with the control values ([1]; 15 and 30 μM)
COc1cccc2c(N3CCc4ccccc4C3C)nc(Nc3ccc(F)cc3C)nc12.Cl (stereo not shown) [Example 34, 8-Methoxy-2-(4-Fluoro-2-Methyl-Phenylamino)-4-(1-Methyl-1,2,3,4-Tetrahydroisoquinoline-2-Yl)Quinazoline Hydrochloride]	inhibited competitively with K^+	40	0.97	–	–	–
COc1ccc2[nH]c([S+]([O-])Cc3ncc(C)c(OC)c3C)nc2c1 (stereo not shown) [Omeprazole, omeprazole, reference compound]	did not inhibit competitively	–	–	irreversible	not overcome by increasing the concentration of KCl	greatly reduced
